Test results as given in patent US20240336654A1, “ANTIMICROBIAL PEPTIDOMIMETICS” (SPEXIS AG, priority 2021, published 2024).
Where a SMILES comes first, the peptide text is derived from it. Bridges are numbered along the chain shown (N, C = ends). [ ]: non-standard residue; d: D form. The star is where a group is joined. Val(Nα-amidino) = CC(C)[C@H](NC(=N)N)C(=O)*; Hyp = O=C(O)[C@@H]1C[C@@H](O)CN1; Cit = NC(=O)NCCC[C@H](N)C(=O)O; Pen = CC(C)(S)[C@H](N)C(=O)O; dDab = NCC[C@@H](N)C(=O)O; hSer = N[C@@H](CCO)C(=O)O; Orn = NCCC[C@H](N)C(=O)O; Dab = NCC[C@H](N)C(=O)O

Columns and labels:
Type in all cases: cell-based
[1] = system: human red blood cells (hRBC); conditions: red cells of human, 1 h, 200 μg/mL
Summary of the method: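 Peptides at 200 μg/mL incubated 1 h at 37 °C with 20% (v/v) washed human RBC, shaking. Hemolysis from supernatant OD540, expressed as percent of 2.5% Triton X-100 lysis, with PBS as 0%.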

[2] = system: Escherichia coli ATCC 25922; conditions: ATCC 25922
Summary of the method: (§1)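 The MIC is the lowest peptide concentration, in μg/mL, with no visible growth after 18-20 h incubation at 35 °C. Serial two-fold peptide dilutions in water with 0.002% P-80 final were added to bacteria in cation-adjusted MHII broth, about 5×10^5 CFU/mL, following modified CLSI microdilution.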

[3] = system: Klebsiella pneumoniae SSI3010; conditions: SSI3010
Summary of the method: as §1

[4] = system: Escherichia coli MCR-1 Af 45; conditions: MCR-1 Af 45
Summary of the method: as §1

SMILES	Hemolysis at 0.2 g/L [1] [%]	Escherichia coli ATCC 25922 MIC [2] [µg/mL]	Klebsiella pneumoniae SSI3010 MIC [3] [µg/mL]	Escherichia coli MCR-1 Af45 MIC [4] [µg/mL]
CC[C@H](C)[C@H](NC(=O)[C@@H]1C[C@@H](O)CN1C(=O)[C@@H](NC(=N)N)C(C)C)C(=O)N[C@H]1CCNC(=O)CC[C@@H](C(=O)N[C@@H](Cc2ccc(O)cc2)C(=O)O)NC(=O)[C@H](CCN)NC(=O)[C@H](CCN)NC(=O)[C@H](CO)NC(=O)[C@@H](CCN)NC(=O)[C@H]([C@@H](C)O)NC(=O)[C@H](CCN)NC(=O)[C@H](CCCNC(=N)N)NC(=O)[C@H](CC(N)=O)NC(=O)[C@H]([C@@H](C)O)NC(=O)[C@H](Cc2ccc(O)cc2)NC1=O [Example 112, Gua-Val-Hyp-Ile-Dab-Tyr-Thr-Asn-Arg-Dab-Thr-^DDab-Ser-Dab-Dab-Glu-Tyr] ({Val(Nα-amidino)}-[Hyp]I[Dab]YTNR[Dab]T[dDab]S[Dab][Dab]EY-OH; lactam 3-14)	<1	0.125	0.25	0.125
CC[C@H](C)[C@H](NC(=O)[C@@H]1C[C@@H](O)CN1C(=O)[C@@H](NC(=N)N)C(C)C)C(=O)N[C@H]1CCNC(=O)CC[C@@H](C(=O)N[C@@H](Cc2ccc(O)cc2)C(=O)O)NC(=O)[C@H](CCN)NC(=O)[C@H](CCN)NC(=O)[C@H]([C@@H](C)O)NC(=O)[C@@H](CCN)NC(=O)[C@H]([C@@H](C)O)NC(=O)[C@H](CCN)NC(=O)[C@H](CCCNC(=N)N)NC(=O)[C@H](CC(N)=O)NC(=O)[C@H]([C@@H](C)O)NC(=O)[C@H](Cc2ccc(O)cc2)NC1=O [Example 113, Gua-Val-Hyp-Ile-Dab-Tyr-Thr-Asn-Arg-Dab-Thr-^DDab-Thr-Dab-Dab-Glu-Tyr] ({Val(Nα-amidino)}-[Hyp]I[Dab]YTNR[Dab]T[dDab]T[Dab][Dab]EY-OH; lactam 3-14)	<1	0.125	0.25	0.125
CC[C@H](C)[C@H](NC(=O)[C@@H]1C[C@@H](O)CN1C(=O)[C@@H](NC(=N)N)C(C)C)C(=O)N[C@H]1CCNC(=O)CC[C@@H](C(=O)N[C@@H](Cc2ccc(O)cc2)C(=O)O)NC(=O)[C@H](CCN)NC(=O)[C@H](CCN)NC(=O)[C@H](CCCNC(N)=O)NC(=O)[C@@H](CCN)NC(=O)[C@H]([C@@H](C)O)NC(=O)[C@H](CCN)NC(=O)[C@H](CCCNC(=N)N)NC(=O)[C@H](CC(N)=O)NC(=O)[C@H]([C@@H](C)O)NC(=O)[C@H](Cc2ccc(O)cc2)NC1=O [Example 114, Gua-Val-Hyp-Ile-Dab-Tyr-Thr-Asn-Arg-Dab-Thr-^DDab-Cit-Dab-Dab-Glu-Tyr] ({Val(Nα-amidino)}-[Hyp]I[Dab]YTNR[Dab]T[dDab][Cit][Dab][Dab]EY-OH; lactam 3-14)	<1	0.125	0.5	0.125
CC[C@H](C)[C@H](NC(=O)[C@@H]1C[C@@H](O)CN1C(=O)[C@@H](NC(=N)N)C(C)C)C(=O)N[C@@H]1C(=O)N[C@@H](Cc2ccc(O)cc2)C(=O)N[C@@H](CCCNC(N)=O)C(=O)N[C@@H](CC(N)=O)C(=O)N[C@@H](CCCNC(=N)N)C(=O)N[C@@H](CCN)C(=O)N[C@@H]([C@@H](C)O)C(=O)N[C@H](CCN)C(=O)N[C@@H](CCCCN)C(=O)N[C@@H](CCN)C(=O)N[C@@H](CCN)C(=O)N[C@H](C(=O)N[C@@H](Cc2ccc(O)cc2)C(=O)O)CSSC1(C)C [Example 115, Gua-Val-Hyp-Ile-Pen-Tyr-Cit-Asn-Arg-Dab-Thr-^DDab-Lys-Dab-Dab-Cys-Tyr] ({Val(Nα-amidino)}-[Hyp]I[Pen]Y[Cit]NR[Dab]T[dDab]K[Dab][Dab]CY-OH; disulfide 3-14)	<1	0.125	0.125	0.0625
CC[C@H](C)[C@H](NC(=O)[C@@H]1C[C@@H](O)CN1C(=O)[C@@H](NC(=N)N)C(C)C)C(=O)N[C@H]1CCNC(=O)CC[C@@H](C(=O)N[C@@H](Cc2ccc(O)cc2)C(=O)O)NC(=O)[C@H](CCN)NC(=O)[C@H](CCN)NC(=O)[C@H](CCCCN)NC(=O)[C@@H](CCN)NC(=O)[C@H]([C@@H](C)O)NC(=O)[C@H](CCN)NC(=O)[C@H](CCCNC(=N)N)NC(=O)[C@H](CC(N)=O)NC(=O)[C@H](CCCNC(N)=O)NC(=O)[C@H](Cc2ccc(O)cc2)NC1=O [Example 116, Gua-Val-Hyp-Ile-Dab-Tyr-Cit-Asn-Arg-Dab-Thr-^DDab-Lys-Dab-Dab-Glu-Tyr] ({Val(Nα-amidino)}-[Hyp]I[Dab]Y[Cit]NR[Dab]T[dDab]K[Dab][Dab]EY-OH; lactam 3-14)	<1	0.0625	0.125	0.0625
CC[C@H](C)[C@H](NC(=O)[C@@H]1C[C@@H](O)CN1C(=O)[C@@H](NC(=N)N)C(C)C)C(=O)N[C@@H]1C(=O)N[C@@H](Cc2ccc(O)cc2)C(=O)N[C@@H](CCO)C(=O)N[C@@H](CC(N)=O)C(=O)N[C@@H](CCCNC(=N)N)C(=O)N[C@@H](CCN)C(=O)N[C@@H]([C@@H](C)O)C(=O)N[C@H](CCN)C(=O)N[C@@H](CCCCN)C(=O)N[C@@H](CCN)C(=O)N[C@@H](CCN)C(=O)N[C@H](C(=O)N[C@@H](Cc2ccc(O)cc2)C(=O)O)CSSC1(C)C [Example 117, Gua-Val-Hyp-Ile-Pen-Tyr-Hse-Asn-Arg-Dab-Thr-^DDab-Lys-Dab-Dab-Cys-Tyr] ({Val(Nα-amidino)}-[Hyp]I[Pen]Y[hSer]NR[Dab]T[dDab]K[Dab][Dab]CY-OH; disulfide 3-14)	<1	0.125	0.125	0.0625
CC[C@H](C)[C@H](NC(=O)[C@@H]1C[C@@H](O)CN1C(=O)[C@@H](NC(=N)N)C(C)C)C(=O)N[C@H]1CCNC(=O)CC[C@@H](C(=O)N[C@@H](Cc2ccc(O)cc2)C(=O)O)NC(=O)[C@H](CCN)NC(=O)[C@H](CCN)NC(=O)[C@H](CCCCN)NC(=O)[C@@H](CCN)NC(=O)[C@H]([C@@H](C)O)NC(=O)[C@H](CCN)NC(=O)[C@H](CCCNC(=N)N)NC(=O)[C@H](CC(N)=O)NC(=O)[C@H](CCO)NC(=O)[C@H](Cc2ccc(O)cc2)NC1=O [Example 118, Gua-Val-Hyp-Ile-Dab-Tyr-Hse-Asn-Arg-Dab-Thr-^DDab-Lys-Dab-Dab-Glu-Tyr] ({Val(Nα-amidino)}-[Hyp]I[Dab]Y[hSer]NR[Dab]T[dDab]K[Dab][Dab]EY-OH; lactam 3-14)	<1	0.0625	0.125	0.0625
CC[C@H](C)[C@H](NC(=O)[C@@H]1C[C@@H](O)CN1C(=O)[C@@H](NC(=N)N)C(C)C)C(=O)N[C@H]1CCNC(=O)CC[C@@H](C(=O)N[C@@H](Cc2ccc(O)cc2)C(=O)O)NC(=O)[C@H](CCN)NC(=O)[C@H](CCN)NC(=O)[C@H](CCCN)NC(=O)[C@@H](CCN)NC(=O)[C@H]([C@@H](C)O)NC(=O)[C@H](CCN)NC(=O)[C@H](CCCNC(=N)N)NC(=O)[C@H](CC(N)=O)NC(=O)[C@H]([C@@H](C)O)NC(=O)[C@H](Cc2ccc(O)cc2)NC1=O [Example 119, Gua-Val-Hyp-Ile-Dab-Tyr-Thr-Asn-Arg-Dab-Thr-^DDab-Orn-Dab-Dab-Glu-Tyr] ({Val(Nα-amidino)}-[Hyp]I[Dab]YTNR[Dab]T[dDab][Orn][Dab][Dab]EY-OH; lactam 3-14)	<1	0.0625	0.125	0.0625
